As usually defined, the clearance is the volume of plasma or blood freed of the substance per unit of time. The term bioavailability denotes the share of a dose that reaches the circulation, judged against a reference dose that is usually intravenous. In general, half-life refers to the time needed for the level to fall by half in the phase considered. A word on the EC50: it is the concentration needed to bring the measured effect to its halfway point.

Data set [1] is described as follows: In vivo pharmacokinetic study, monkey. Further details: species or system cynomolgus monkey. The note with it: for clearance / Vd / bioavailability: cynomolgus monkey; for clearance / Vd: intravenous; for Vd: read-out: Vss; for bioavailability: oral. Here is the method:
(§1) In vivo pharmacokinetic studies were conducted in mouse, rat, dog, or cynomolgus monkey to determine clearance, oral exposure and bioavailability (% F). Solution doses of the compounds were administered intravenously through catheters or orally by gavage. Blood samples were collected at the following time points (n=2 or 3/route/species): 0.083 (IV only), 0.167 (IV only), 0.25, 0.5, 1, 2, 4, 6, 8, 12, and 24 h. Non-compartmental pharmacokinetic parameters were determined using Phoenix Winnonlin 6.1 (Pharsight, Mountain View, Calif.). Bioavailability of the oral formulation of each compound were calculated as the ratio of the oral dose normalized AUCinf to the intravenous dose normalized AUCinf. Results are expressed in Table 2.

Data set [2] can be described thus: Hepatocyte incubations, metabolic stability. In kind it is in vitro ADME. Also on record: dose or concentration left out as unconfirmed. The note with it: cryopreserved human hepatocytes, 0.25×10^6 cells, up to 120 min, 37 C. Here is the method:
Hepatocyte incubations were conducted using cryopreserved hepatocytes purchased from CellzDirect (Durham, N.C.). Cryopreserved hepatocytes were removed from liquid nitrogen and thawed according to XenoTech's guidelines listed in “XenoTech Protocol for Thawing Cryopreserved Hepatocytes” using Hepatocyte Isolation Kit K2000 (Dec. 13, 2004). Hepatocytes were diluted to 1 million cells in 1 mL of Williams E media containing 25 mM HEPES buffer and 2 mM Glutamax.
Hepatocyte incubations were carried out in 96-well plates on an Eppendorf shaker at 350 rpm at 37 C. Reaction mixtures consisted of 0.25×10^6 cells and […] test compound (to maintain a 0.05% final DMSO concentration) in a final volume of 0.5 mL. An initial time-point (t0) was collected and subsequent aliquots were collected at 15, 30, 60, 90, and 120 min. Reactions were terminated by transferring […] of the incubation mixture into a 96-well plate containing […] of an organic mixture [acetonitrile and methanol (80:20)] at 4° C. Precipitated protein was removed by centrifugation and the resultant supernatant was transferred to a new 96-well polypropylene plate for LC/MS/MS analysis. Drug-free matrix control and 2 QC standards (phenacetin and propranolol) were included in each experiment and treated in the same manner as test compound.
Metabolic stability expressed as the percentage of parent compound remaining was calculated from the peak area ratio of compound remaining after incubation (tx) compared to the time zero (t0) incubation.
The half-life (t1/2) was calculated using the following equation: […]
Where K is the slope of the ln % remaining vs. time regression. Half-life values were only reported when at least 15% loss of parent compound was observed.

Data set [3] in a line: In vivo pharmacokinetic study, dog. The note with it: for DNAUC / T 1/2: Dog; for clearance / Vd / bioavailability: dog, blood; for clearance / Vd: intravenous; for Vd: read-out: Vss; for bioavailability: oral. Here is the method: as §1
Data set [4] in a line: In vivo pharmacokinetic study, rat. The note with it: for DNAUC / T 1/2: Rat; for clearance / Vd / bioavailability: rat, blood; for clearance / Vd: intravenous; for Vd: read-out: Vss; for bioavailability: oral. Here is the method: as §1
A short description of data set [5]: In vivo pharmacokinetic study, mouse. To be noted: for clearance / Vd / bioavailability: blood; for clearance / Vd: intravenous; for Vd: read-out: Vss; for bioavailability: oral. Here is the method:
as §1

For data set [6], the system named is sub-genomic HCV NS3-NS5B replicon genotype 1a C316Y (Huh-7 cells). Kind of data set: Replicon luciferase cell based assay, genotype 1a C316Y. The note with it: Hepatitis C virus, Huh-7, 48 h, read-out: EC50 1a 316Y. Here is the method: (§2) 150 μL of a 1 mM stock solution in DMSO of each test compound was transferred into in the first column of a 96 well, V-bottom microplate, to give 200 times the top concentration of the required dilution series. Aliquots of 50 μL were added to each well of the remaining rows containing 100 μL of DMSO giving a 1:3 dilution series over ten points. Columns 11 and 12 contained DMSO only for the positive and negative control, respectively. 10 μL of each well were transferred into 90 μL of DMEM medium (Invitrogen #41965-039) supplemented with 5% v/v foetal calf serum, 1% v/v non-essential amino acids solution, 100 units/ml penicillin, 100 μg/ml streptomycin and 2 mM L-glutamine to give 20 times the top concentration of the required dilution series.
(§3) Suspensions were prepared from cultures of Huh-7 cells stably transfected with sub-genomic HCV NS3-NS5B replicons of either genotype 1b (the ET subline described by Pietschmann, T., Lohmann, V., Kaul, A., Krieger, N., Rinck, G., Rutter, G., Strand, D. & Bartenschlager, R., Journal of Virology, 2002, 76, 4008-4021), genotype 1a (subline 1.19 constructed in-house from H77 SG-Neo containing adaptive mutations P1496L and S2204I as described by Blight, K. J., McKeating, J. A., Marcotrigiano, J., and Rice, C. M. Journal of Virology, 2003, 77, 3180-3190), genotype 1b C316N (constructed in-house by site directed mutagenesis of the NS5B gene of the ET subline), or genotype 1a C316Y (constructed in-house by site directed mutagenesis of the NS5B gene of H77 SG-Neo containing adaptive mutations P1496L and S2204I as described by Blight, K. J., McKeating, J. A., Marcotrigiano, J., and Rice, C. M. Journal of Virology, 2003, 77, 3180-3190) linked to a firefly luciferase reporter gene. Monolayers nearing confluency were stripped from growth flasks with versene-trypsin solution and the cells re-suspended in assay medium comprising DMEM. 95 μL of suspension containing either 15,000 cells (genotype 1b luciferase replicon) or 20,000 cells (genotype 1a luciferase replicon) were added to all wells of a 96 well plate (Perkin Elmer, #6005686), except medium controls in column 12 of the assay plate. The cell suspension was dosed with 5 μL of compound solution and the plate was incubated for 48 hours at 37° C. in a 5% CO2 atmosphere.
(§4) For toxicity the cells in one plate were treated with Cell Titer Glo (Promega, #G7573). A solution of Cell Titer Glo was prepared according to the manufacturer's instructions, and 100 μL added to each well. The plate was then read for luminescence on an Envision. For potency a solution of Steady Glo (Promega, #E2550) was prepared according to the manufacturer's instructions and 100 μL added to each well. After a twenty minute incubation the plate was then read for luminescence on an Envision.
(§5) Potency: The luminescence values from all compound-free wells containing cells were averaged to obtain a positive control value. The mean luminescence value from the compound-free wells that had received no cells was used to provide the negative (background) control value. The readings from the wells at each compound concentration were taken and after the subtraction of the mean background from all values, were expressed as a percentage of the positive control signal. The quantifiable and specific reduction of luciferase signal in the presence of a drug is a direct measure of replicon inhibition. BioAssay Enterprise (CamebridgeSoft) with the XC50 module for curve fitting was used to plot the curve of percentage inhibition against compound concentration and derive the 50% inhibitory concentration (EC50) for the compound. EC50 is the effective concentration, that is, the concentration of compound where 50% maximal effect is observed. The EC50 values of two identical plates were averaged. The results are presented in Table 1 as EC50 for genotypes (GT) 1a, 1b, 1b 316N and 1a 316Y.
On the technique in general: A replicon is a self-replicating genome or part of one, used to study replication in cells.

Data set [7] deals with sub-genomic HCV NS3-NS5B replicon genotype 1a (Huh-7 cells). Nature of the data set: Replicon luciferase cell based assay, genotype 1a. To be noted: Hepatitis C virus; Huh-7 genotype 1a luciferase replicon, 48 hours; read-out: EC50 GT 1a. Here is the method:
as §2, §3, §4, §5

For data set [8], the system named is sub-genomic HCV NS3-NS5B replicon genotype 1b C316N (Huh-7 cells). Nature of the data set: Replicon luciferase cell based assay, genotype 1b C316N. To be noted: Hepatitis C virus, Huh-7, 48 h, read-out: EC50 1b 316N. Here is the method: as §2, §3, §4, §5
The test system of data set [9] is sub-genomic HCV NS3-NS5B replicon genotype 1b (Huh-7 cells). Nature of the data set: Replicon luciferase cell based assay, genotype 1b. The note with it: Hepatitis C virus; Huh-7 genotype 1b luciferase replicon, 48 hours; read-out: EC50 GT1b. Here is the method:
as §2, §3, §4, §5

For `CNC(=O)c1c(-c2ccc(F)cc2)oc2cc(N(Cc3cc(F)c4c(c3)COB4O)S(C)(=O)=O)c(C3CC3)cc12` [A], in data set [1] (Monkey), the DNAUC turned out to be 33 ng·h/mL/mg/kg and the “T 1/2” value is on record as 2.1 H. For the same compound, in [1] (blood), the clearance was found to be 70.1 mL/min/kg, the Vd stood at 6.3 L/kg and the bioavailability stood at 13%. This compound also displayed a half-life in [2] greater than 6 h. Besides, in data set [3], the DNAUC was 1074 ng·h/mL/mg/kg, the “T 1/2” value is listed as 5.1 H, the clearance stood at 12.4 mL/min/kg and the Vd is 3.5 L/kg. Further, the bioavailability in [3] was 71%. In data set [4], the DNAUC stood at 541 ng·h/mL/mg/kg, the “T 1/2” value came to 1.7 H, the clearance came to 14.5 mL/min/kg and the Vd was 1 L/kg. Moreover, the bioavailability in [4] was found to be 47%. Besides, in [5] (Mouse (avg)), the DNAUC worked out at 9344 ng·h/mL/mg/kg, the “T 1/2” value is given as 4.3 H, the clearance amounted to 0.9 mL/min/kg and the Vd amounted to 0.3 L/kg. Further, in [5] (Mouse (avg)), the bioavailability worked out at 51%.

`CNC(=O)c1c(-c2ccc(F)cc2)oc2cc(N(Cc3ccc(B(O)O)c(Cl)c3)S(C)(=O)=O)c(C3CC3)cc12` [B]: the half-life in data set [2] worked out at 0.75 h. Besides, in data set [4], the DNAUC worked out at 122 ng·h/mL/mg/kg, the “T 1/2” value came out at 1.1 H, the clearance came out at 33.1 mL/min/kg and the Vd came to 2.5 L/kg. In data set [4], this compound came in with a bioavailability of 23%.

As to `CNC(=O)c1c(-c2ccc(F)cc2)oc2cc(N(Cc3ccc(B(O)O)c(F)c3)S(C)(=O)=O)c(C3CC3)cc12` [D], in data set [1] (Monkey (plasma)), the DNAUC was determined as 101 ng·h/mL/mg/kg, the “T 1/2” value was 1.1 H, the clearance stood at 48.4 mL/min/kg and the Vd came to 1.8 L/kg. The compound also came in with a bioavailability in [1] (Monkey (plasma)) of 28%. Further, the half-life in [2] turned out to be 1.03 h. Further, in data set [3], the DNAUC is 1147 ng·h/mL/mg/kg, the “T 1/2” value worked out at 4.5 H, the clearance was 10.8 mL/min/kg and the Vd was 3.6 L/kg. The same compound came in with a bioavailability in data set [3] of 70%. In addition, in data set [4], the DNAUC was found to be 403 ng·h/mL/mg/kg, the “T 1/2” value was 2.2 H, the clearance was 18.6 mL/min/kg and the Vd was 0.8 L/kg. The bioavailability in data set [4] came to 45%. Moreover, in data set [5] (Mouse (avg)), the DNAUC was 4108 ng·h/mL/mg/kg, the “T 1/2” value is 5 H, the clearance is 1.4 mL/min/kg and the Vd was 0.6 L/kg. The compound also yielded a bioavailability in data set [5] (Mouse (avg)) of 37%.

Turning to `CNC(=O)c1c(-c2ccc(F)cc2)oc2cc(N(c3ccc(B(O)O)c(Cl)c3)S(C)(=O)=O)c(C3CC3)cc12` [Example 1, (2-Chloro-4-(N-(5-cyclopropyl-2-(4-fluorophenyl)-3-(methylcarbamoyl)benzofuran-6-yl)methylsulfonamido)phenyl)boronic acid], the DNAUC in data set [1] (Monkey) is 2953 ng·h/mL/mg/kg; in data set [3], 6438 ng·h/mL/mg/kg; in data set [4], 567 ng·h/mL/mg/kg; in [5] (Mouse), 6688 ng·h/mL/mg/kg. The “T 1/2” value is given as 3.7 H in data set [1] (Monkey), 8.7 H in data set [3], 2.9 H in data set [4] and 5.5 H in data set [5] (Mouse). Also, the clearance in data set [1] (blood) amounted to 2.2 mL/min/kg; in data set [3], 2.3 mL/min/kg; in data set [4] it was 7.5 mL/min/kg; in data set [5] (mouse), 0.9 mL/min/kg. The Vd in [1] (blood) amounted to 0.5 L/kg; in data set [3], 1.6 L/kg; in data set [4] it was 1.3 L/kg; in data set [5] (mouse) it was 0.4 L/kg. The bioavailability in [1] (blood) came out at 51%; in [3], 83%; in data set [4], 23%; in data set [5] (mouse), 37%. Also, in data set [2], the half-life was greater than 6 h. In addition, the EC50 in data set [6], in data set [7], in data set [8] and in [9] was 1 to 10 nM throughout.

For the origin of these results see patent publication US9682999B2, “Benzofuran compounds for the treatment of hepatitis C virus infections” (Glaxo Group Limited, priority 2011, dated 2017).
